Experimental data: US10766869B2, “Triazoles for the treatment of demyelinating dieases” (Vertex Pharmaceuticals Incorporated, priority 2015, dated 2020)

System: primary rat mixed cortical cells
Test: In vitro myelination assay (MBP positive myelin strands, fold myelin pixels above background)
Type: cell-based
Settings: Rattus norvegicus, relative to baseline of no added compound, read-out: Fold myelin pixels above background; for fold induction at 1 µM: 1.0 μM compound; for fold induction at 10 µM: 10.0 μM compound
In short: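 Mixed cortical culture, P1 rat, 87,500-95,000 cells/well; compound present from seeding, refreshed days 6 and 10; 14 d, 37 °C, 5% CO2. Day 14: PFA fix, anti-MBP + Hoechst. Read-out: fold MBP myelin pixels over untreated, tested at 1.0 and 10.0 μM.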

| SMILES | fold induction at 1 µM | fold induction at 10 µM |
| --- | --- | --- |
| Cc1cc(Nc2ncn(-c3cccc(F)c3F)n2)cc(N2CCN(C3COC3)CC2)c1 [Compound 445, 1-(2,3-difluorophenyl)-N-[3-methyl-5-[4-(oxetan-3-yl)piperazin-1-yl]phenyl]-1,2,4-triazol-3-amine] | 10 to 100 | 10 to 100 |
| Cc1cc(Nc2ncn(-c3ccccc3Cl)n2)cc(N2CCN(C3COC3)CC2)c1 [Compound 446, 1-(2-chlorophenyl)-N-[3-methyl-5-[4-(oxetan-3-yl)piperazin-1-yl]phenyl]-1,2,4-triazol-3-amine] | 1 to 10 | 1000 to 10000 |
| Cc1cc(Nc2ncn(-c3cncc(F)c3)n2)cc(C2COC2)c1 [Compound 447, 1-(5-fluoro-3-pyridyl)-N-[3-methyl-5-(oxetan-3-yl)phenyl]-1,2,4-triazol-3-amine] | 10 to 100 | 10 to 100 |
| Cc1cc(Nc2ncn(-c3cc(F)cc(F)c3)n2)cc(NC2CC2)c1 [Compound 448, N1-cyclopropyl-N3-[1-(3,5-difluorophenyl)-1,2,4-triazol-3-yl]-5-methyl-benzene-1,3-diamine] | 100 to 1000 | 1 to 10 |
| CC(=O)N1CCCC(c2cc(C)cc(Nc3ncn(-c4ccncn4)n3)c2)C1 (stereo not shown) [Compound 449, 1-[3-[3-methyl-5-[(1-pyrimidin-4-yl-1,2,4-triazol-3-yl)amino]phenyl]-1-piperidyl]ethanone] | 100 to 1000 | ≤ 1 |
| CN1CCN(c2cc(F)cc(Nc3ncn(-c4ccc(F)cc4F)n3)c2)CC1 [Compound 450, 1-(2,4-difluorophenyl)-N-[3-fluoro-5-(4-methylpiperazin-1-yl)phenyl]-1,2,4-triazol-3-amine] | ≤ 1 | ≤ 1 |
| Cc1cc(N2CCOCC2)cc(Nc2ncn(-c3cccnc3)n2)c1F [Compound 451, N-(2-fluoro-3-methyl-5-morpholino-phenyl)-1-(3-pyridyl)-1,2,4-triazol-3-amine] | 1 to 10 | 100 to 1000 |
| Fc1cc(Nc2ncn(-c3ccccc3)n2)cc(C2CCNC2)c1 (stereo not shown) [Compound 452, N-(3-fluoro-5-pyrrolidin-3-yl-phenyl)-1-phenyl-1,2,4-triazol-3-amine] | 10 to 100 | ≤ 1 |
| Cc1cc(Nc2ncn(-c3cc(F)cc(F)c3)n2)cc(N2CCN(C3CC(F)(F)C3)CC2)c1 [Compound 453, N-[3-[4-(3,3-difluorocyclobutyl)piperazin-1-yl]-5-methyl-phenyl]-1-(3,5-difluorophenyl)-1,2,4-triazol-3-amine] | 10 to 100 | 1000 to 10000 |
| Cc1nccc(-n2cnc(Nc3cc(C4CC4)cc(N4CCN(C5COC5)CC4)c3)n2)n1 [Compound 454, N-[3-cyclopropyl-5-[4-(oxetan-3-yl)piperazin-1-yl]phenyl]-1-(2-methylpyrimidin-4-yl)-1,2,4-triazol-3-amine] | ≤ 1 | 1 to 10 |
| Cc1cc(Nc2ncn(-c3ccccc3)n2)cc(N2CCN(c3ccccc3F)CC2)c1 [Compound 455, N-[3-[4-(2-fluorophenyl)piperazin-1-yl]-5-methyl-phenyl]-1-phenyl-1,2,4-triazol-3-amine] | ≤ 1 | 10 to 100 |
| Fc1cc(F)cc(-n2cnc(Nc3cc(C4CCOC4)cc(N4CCOCC4)c3)n2)c1 (stereo not shown) [Compound 456, 1-(3,5-difluorophenyl)-N-(3-morpholino-5-tetrahydrofuran-3-yl-phenyl)-1,2,4-triazol-3-amine] | 1000 to 10000 | 100 to 1000 |
| Cc1cc(Nc2ncn(-c3cc(F)cc(F)c3)n2)cc(N2CCC(F)CC2)n1 [Compound 457, N-[1-(3,5-difluorophenyl)-1,2,4-triazol-3-yl]-2-(4-fluoro-1-piperidyl)-6-methyl-pyridin-4-amine] | 1000 to 10000 | 1000 to 10000 |
| Cc1cc(Nc2ncn(-c3cc(F)cc(F)c3)n2)cc(N2CCN(C(=O)C3CC3)CC2)c1 [Compound 458] | 1000 to 10000 | 100 to 1000 |
